Here are results for 68 sequences from the supplement of paper PMC11208160.
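Note: IS621 bridge recombinase in Escherichia coli cells against a fixed T5 target plasmid.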

The data set can be described thus: recombinant UMI read abundance after kanamycin selection (control-corrected) (log10(CPM+1)); higher = more efficient recombination; extreme values may be limits of the assay; sequences stand for … in AGTGCAGAGAAAATCGGCCAGTTTTCTCTGCCTGCAGTCCGCATGCCGTGGGACCCCTTGGGTTCTAACCTGTTGCCTAGATTTATGCAGCGGACTGCCTTTCTCCCAAAGTGATAAACCGG…AGGTTGGTTTCACT; site = the 11-nt donor. Summed up: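 In a pooled Escherichia coli screen for the IS621 bridge recombinase, donor and donor-binding-loop pairs were each placed with a 12-nt UMI on a plasmid bearing a promoterless kanamycin gene. This library was co-electroporated with a target plasmid encoding a fixed target and T7-inducible recombinase, and cells were plated either on IPTG (0.07 mM) plus kanamycin or without selection, in two replicates each. Recombinant UMIs were PCR-amplified across the donor–target junction and sequenced, and counts were converted to CPM, averaged over replicates, scaled by control-derived factors and reported as log10(CPM+1).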
For “TCATCTACATGGACCGGTTTTCCCGGTAATCCGTATTTGTG (site TCATCTACTCA)”, the “recombinant UMI read abundance (log10)” value came out at 0.00873.
In the case of “TCATGGTCATGGACCGGTTTTCCCGGTAATCCGTATTTGTT (site TCATGGTCTAA)”, the “recombinant UMI read abundance (log10)” value came out at 0.48.
Consider “TCCAAAGCATGGACCGGTTTTCCCGGTAATCCGTATTTGAC (site GTACCGCCTAG)”, for which the “recombinant UMI read abundance (log10)” value is 0.
Then “TCCAACTCATGGACCGGTTTTCCCGGTAATCCGTATTTGCC (site TCCAAATCTGG)”, with 0; and “TCCAACTCATGGACCGGTTTTCCCGGTAATCCGTATTTGCC (site TCCAACTCTGG)”, with 0; and “TCCAACTCATGGACCGGTTTTCCCGGTAATCCGTATTTGCC (site TCCAAGTCTGG)”, with 0.
“TCCAACTCATGGACCGGTTTTCCCGGTAATCCGTATTTGCC (site TCCAATTCTGG)”: the “recombinant UMI read abundance (log10)” value came to 0.
As to “TCCAATTCATGGACCGGTTTTCCCGGTAATCCGTATTTGCC (site ACCAATTCTGG)”, the “recombinant UMI read abundance (log10)” value amounted to 0.
Next, “TCCAATTCATGGACCGGTTTTCCCGGTAATCCGTATTTGCC (site CCCAATTCTGG)”: 0; “TCCAATTCATGGACCGGTTTTCCCGGTAATCCGTATTTGCC (site GCCAATTCTGG)”: 0.
Take “TCCAATTCATGGACCGGTTTTCCCGGTAATCCGTATTTGCC (site TACAATTCTGG)”: the “recombinant UMI read abundance (log10)” value was determined as 0.
Next, “TCCAATTCATGGACCGGTTTTCCCGGTAATCCGTATTTGCC (site TCAAATTCTGG)”: 0.
As for “TCCAATTCATGGACCGGTTTTCCCGGTAATCCGTATTTGCC (site TCCAAATCTGG)”, the “recombinant UMI read abundance (log10)” value turned out to be 0.
Take “TCCAATTCATGGACCGGTTTTCCCGGTAATCCGTATTTGCC (site TCCAACTCTGG)”: the “recombinant UMI read abundance (log10)” value was found to be 0.
Consider “TCCAATTCATGGACCGGTTTTCCCGGTAATCCGTATTTGCC (site TCCAAGTCTGG)”, for which the “recombinant UMI read abundance (log10)” value was 0.
As to “TCCAATTCATGGACCGGTTTTCCCGGTAATCCGTATTTGCC (site TCCAATACTGG)”, the “recombinant UMI read abundance (log10)” value stood at 0.
As for “TCCAATTCATGGACCGGTTTTCCCGGTAATCCGTATTTGCC (site TCCAATCCTGG)”, the “recombinant UMI read abundance (log10)” value amounted to 0.
As to “TCCAATTCATGGACCGGTTTTCCCGGTAATCCGTATTTGCC (site TCCAATGCTGG)”, the “recombinant UMI read abundance (log10)” value was found to be 0.
In the case of “TCCAATTCATGGACCGGTTTTCCCGGTAATCCGTATTTGCC (site TCCAATTCTAG)”, the “recombinant UMI read abundance (log10)” value was determined as 0.
As to “TCCAATTCATGGACCGGTTTTCCCGGTAATCCGTATTTGCC (site TCCAATTCTCG)”, the “recombinant UMI read abundance (log10)” value was 0.
As to “TCCAATTCATGGACCGGTTTTCCCGGTAATCCGTATTTGCC (site TCCAATTCTGC)”, the “recombinant UMI read abundance (log10)” value was 0.
Then “TCCAATTCATGGACCGGTTTTCCCGGTAATCCGTATTTGCC (site TCCAATTCTGG)”, with 0.
In the case of “TCCAATTCATGGACCGGTTTTCCCGGTAATCCGTATTTGCC (site TCCAATTCTGT)”, the “recombinant UMI read abundance (log10)” value stood at 0.
With “TCCAATTCATGGACCGGTTTTCCCGGTAATCCGTATTTGCC (site TCCAATTCTTG)”, the “recombinant UMI read abundance (log10)” value was found to be 0.
Then “TCCAATTCATGGACCGGTTTTCCCGGTAATCCGTATTTGCC (site TCCACTTCTGG)”, with 0.
“TCCAATTCATGGACCGGTTTTCCCGGTAATCCGTATTTGCC (site TCCAGTTCTGG)”: the “recombinant UMI read abundance (log10)” value was determined as 0.
On to “TCCAATTCATGGACCGGTTTTCCCGGTAATCCGTATTTGCC (site TCCATTTCTGG)”, for which the “recombinant UMI read abundance (log10)” value came out at 0.
Then “TCCAATTCATGGACCGGTTTTCCCGGTAATCCGTATTTGCC (site TCCCATTCTGG)”, with 0; and “TCCAATTCATGGACCGGTTTTCCCGGTAATCCGTATTTGCC (site TCCGATTCTGG)”, with 0; and “TCCAATTCATGGACCGGTTTTCCCGGTAATCCGTATTTGCC (site TCCTATTCTGG)”, with 0.
Regarding “TCCAATTCATGGACCGGTTTTCCCGGTAATCCGTATTTGCC (site TCGAATTCTGG)”, the “recombinant UMI read abundance (log10)” value stood at 0.
Then “TCCAATTCATGGACCGGTTTTCCCGGTAATCCGTATTTGCC (site TCTAATTCTGG)”, with 0; and “TCCAATTCATGGACCGGTTTTCCCGGTAATCCGTATTTGCC (site TGCAATTCTGG)”, with 0.
For the sequence “TCCAATTCATGGACCGGTTTTCCCGGTAATCCGTATTTGCC (site TTCAATTCTGG)”, the “recombinant UMI read abundance (log10)” value was determined as 0.
Turning to “TCCAATTCATGGACCGGTTTTCCCGGTAATCCGTATTTGTC (site TCCAATTCTGA)”, the “recombinant UMI read abundance (log10)” value came to 0.
Regarding “TCCAATTCATGGACCGGTTTTCCCGGTAATCCGTATTTGTC (site TCCAATTCTGC)”, the “recombinant UMI read abundance (log10)” value turned out to be 0.
As to “TCCAATTCATGGACCGGTTTTCCCGGTAATCCGTATTTGTC (site TCCAATTCTGG)”, the “recombinant UMI read abundance (log10)” value is 0.
Next, “TCCAATTCATGGACCGGTTTTCCCGGTAATCCGTATTTGTC (site TCCAATTCTGT)”: 0; “TCCACCGCATGGACCGGTTTTCCCGGTAATCCGTATTTGCC (site TCCACCGCTAG)”: 0.0325.
With “TCCACCGCATGGACCGGTTTTCCCGGTAATCCGTATTTGCC (site TCCACCGCTCG)”, the “recombinant UMI read abundance (log10)” value was 0.0335.
Consider “TCCACCGCATGGACCGGTTTTCCCGGTAATCCGTATTTGCC (site TCCACCGCTGG)”, for which the “recombinant UMI read abundance (log10)” value worked out at 0.
Then “TCCACCGCATGGACCGGTTTTCCCGGTAATCCGTATTTGCC (site TCCACCGCTTG)”, with 0.00442.
As to “TCCAGTACATGGACCGGTTTTCCCGGTAATCCGTATTTGAG (site TCCAGTACTCT)”, the “recombinant UMI read abundance (log10)” value came out at 0.00906.
Then “TCCATATCATGGACCGGTTTTCCCGGTAATCCGTATTTGTC (site ACCATATCTGA)”, with 0; and “TCCATATCATGGACCGGTTTTCCCGGTAATCCGTATTTGTC (site CCCATATCTGA)”, with 0.
In the case of “TCCATATCATGGACCGGTTTTCCCGGTAATCCGTATTTGTC (site GCCATATCTGA)”, the “recombinant UMI read abundance (log10)” value amounted to 0.
As to “TCCCACACATGGACCGGTTTTCCCGGTAATCCGTATTTGTA (site ACCCACACTTA)”, the “recombinant UMI read abundance (log10)” value stood at 0.0202.
In the case of “TCCCACACATGGACCGGTTTTCCCGGTAATCCGTATTTGTA (site CCCCACACTTA)”, the “recombinant UMI read abundance (log10)” value came to 0.0988.
Turning to “TCCCACACATGGACCGGTTTTCCCGGTAATCCGTATTTGTA (site GCCCACACTTA)”, the “recombinant UMI read abundance (log10)” value was found to be 0.0195.
For “TCCCACACATGGACCGGTTTTCCCGGTAATCCGTATTTGTA (site TCCCACACTTA)”, the “recombinant UMI read abundance (log10)” value came out at 0.42.
Next, “TCCCACTCATGGACCGGTTTTCCCGGTAATCCGTATTTGGG (site TCCCACTCTCC)”: 0.0433; “TCCCCAACATGGACCGGTTTTCCCGGTAATCCGTATTTGCT (site TCCCCAACTAG)”: 0.417; “TCCCCTTCATGGACCGGTTTTCCCGGTAATCCGTATTTGAG (site TCCCCTTCTCT)”: 0.
Next, “TCCCGCCCATGGACCGGTTTTCCCGGTAATCCGTATTTGGC (site TCCCGCCCTGC)”: 0; “TCCGAGACATGGACCGGTTTTCCCGGTAATCCGTATTTGCG (site TCAGAGACTCG)”: 0.0174.
Then “TCCGAGACATGGACCGGTTTTCCCGGTAATCCGTATTTGCG (site TCCGAGACTCG)”, with 0.0319.
Consider “TCCGAGACATGGACCGGTTTTCCCGGTAATCCGTATTTGCG (site TCGGAGACTCG)”, for which the “recombinant UMI read abundance (log10)” value was 0.0214.
For the sequence “TCCGAGACATGGACCGGTTTTCCCGGTAATCCGTATTTGCG (site TCTGAGACTCG)”, the “recombinant UMI read abundance (log10)” value came to 0.0115.
In the case of “TCCGCCGCATGGACCGGTTTTCCCGGTAATCCGTATTTGCG (site TCCACCGCTCG)”, the “recombinant UMI read abundance (log10)” value amounted to 0.
For the sequence “TCCGCCGCATGGACCGGTTTTCCCGGTAATCCGTATTTGCG (site TCCCCCGCTCG)”, the “recombinant UMI read abundance (log10)” value stood at 0.00514.
Take “TCCGCCGCATGGACCGGTTTTCCCGGTAATCCGTATTTGCG (site TCCGCCGCTCG)”: the “recombinant UMI read abundance (log10)” value was 0.0179.
Take “TCCGCCGCATGGACCGGTTTTCCCGGTAATCCGTATTTGCG (site TCCTCCGCTCG)”: the “recombinant UMI read abundance (log10)” value is 0.00863.
Take “TCCGCTACATGGACCGGTTTTCCCGGTAATCCGTATTTGAT (site TCCGCTACTAT)”: the “recombinant UMI read abundance (log10)” value was found to be 0.00615.
“TCCGGGTCATGGACCGGTTTTCCCGGTAATCCGTATTTGTA (site TCCGGGTCTTA)”: the “recombinant UMI read abundance (log10)” value was 0.413.
As for “TCCTAATCATGGACCGGTTTTCCCGGTAATCCGTATTTGTC (site TCCTAATCTGA)”, the “recombinant UMI read abundance (log10)” value was 0.
Turning to “TCCTACCCATGGACCGGTTTTCCCGGTAATCCGTATTTGAG (site TCCTACCCTCT)”, the “recombinant UMI read abundance (log10)” value was 0.0177.
With “TCCTAGCCATGGACCGGTTTTCCCGGTAATCCGTATTTGCC (site ACCTAGCCTGG)”, the “recombinant UMI read abundance (log10)” value came out at 0.
With “TCCTAGCCATGGACCGGTTTTCCCGGTAATCCGTATTTGCC (site CCCTAGCCTGG)”, the “recombinant UMI read abundance (log10)” value is 0.
